In patent US7700592B2, “α2C adrenoreceptor agonists” (Schering Corporation, priority 2005, dated 2010):

Molecular target: T1, α2C receptor (Homo sapiens, UniProt P18825)
T1 sequence (P18825 1-462): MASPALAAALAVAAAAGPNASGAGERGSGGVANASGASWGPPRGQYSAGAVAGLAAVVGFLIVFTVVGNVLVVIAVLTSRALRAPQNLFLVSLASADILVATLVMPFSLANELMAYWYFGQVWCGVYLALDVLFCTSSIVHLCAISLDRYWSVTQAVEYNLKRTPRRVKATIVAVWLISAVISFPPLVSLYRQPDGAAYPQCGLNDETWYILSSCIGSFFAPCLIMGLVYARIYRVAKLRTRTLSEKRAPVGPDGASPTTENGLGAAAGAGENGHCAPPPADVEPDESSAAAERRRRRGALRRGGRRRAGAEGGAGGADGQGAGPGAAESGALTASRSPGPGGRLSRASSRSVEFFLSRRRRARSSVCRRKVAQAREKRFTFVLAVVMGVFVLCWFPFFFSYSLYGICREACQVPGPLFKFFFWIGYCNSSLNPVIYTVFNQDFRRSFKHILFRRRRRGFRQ
Assay: GTPγS assay, efficacy agonist activity (Emax) for α2C
Format: biochemical
Settings: active agonist = efficacy at α2C ≧30% Emax; functionally selective = additionally efficacy at α2A ≦30% Emax (GTPγS assay)
Text: For the purposes of this present invention, a compound is defined to be an active agonist of the α2C receptor subtype if the compound's efficacy at the α2C receptor is ≧30% Emax (GTPγS assay). A compound is a functionally selective agonist of the α2C receptor subtype over the α2A receptor subtype if the compound's efficacy at the α2C receptor is ≧30% Emax (GTPγS assay) and its efficacy at the α2A receptor is ≦30% Emax (GTPγS assay).
Efficacy agonist activity values (Emax, GTPγS assay) for α2C were determined by following the general procedure detailed by Umland et al (“Receptor reserve analysis of the human α2c-adrenoceptor using [^35S]GTPγS and cAMP functional assays” European Journal of Pharmacology 2001, 411, 211-221). For the purposes of the present invention, a compound is defined to be an active agonist of the α2C receptor subtype if the compound's efficacy at the α2C receptor is ≧30% Emax (GTPγS assay). A compound is a functionally selective agonist of the α2C receptor subtype over the α2A receptor subtype if the compound's efficacy at the α2C receptor is […] Emax (GTPγS assay) and its efficacy at the α2A receptor is ≦30% Emax (GTPγS assay).

Row | SMILES | Efficacy agonist activity (Emax, GTPγS assay) for α2C: evaluated as active or functionally selective agonist
1 | CCN(C(=O)NC)c1cc(Cl)c2c(c1)N(Cc1c[nH]cn1)CCO2 [Compound 236] | active or functionally selective agonists of the α2C receptor subtype
2 | CCCN(C(=O)NC)c1ccc2c(c1)N(Cc1c[nH]cn1)CCO2 [Compound 238] | active or functionally selective agonists of the α2C receptor subtype
3 | CNC(=O)N(C)c1cc(C)c2c(c1)N(Cc1c[nH]cn1)CCO2 [Compound 239] | active or functionally selective agonists of the α2C receptor subtype
4 | COC(=O)N(C)c1cc(C)c2c(c1)N(Cc1c[nH]cn1)CCO2 [Compound 240] | active or functionally selective agonists of the α2C receptor subtype
5 | COCC(=O)N(C)c1ccc2c(c1)N(Cc1c[nH]cn1)CCO2 [Compound 242] | active or functionally selective agonists of the α2C receptor subtype
6 | CONC(=O)N(C)c1ccc2c(c1)N(Cc1c[nH]cn1)CCO2 [Compound 243] | active or functionally selective agonists of the α2C receptor subtype
7 | CCN(C(=O)NOC)c1ccc2c(c1)N(Cc1c[nH]cn1)CCO2 [Compound 244] | active or functionally selective agonists of the α2C receptor subtype
8 | CCNC(=O)N(CC)c1ccc2c(c1)N(Cc1c[nH]cn1)CCO2 [Compound 245] | active or functionally selective agonists of the α2C receptor subtype
9 | COCCCOC(=O)Nc1ccc2c(c1)N(Cc1c[nH]cn1)CCO2 [Compound 246] | active or functionally selective agonists of the α2C receptor subtype
10 | N#CCCOC(=O)Nc1ccc2c(c1)N(Cc1c[nH]cn1)CCO2 [Compound 247] | active or functionally selective agonists of the α2C receptor subtype
11 | N#Cc1ccc(COC(=O)Nc2ccc3c(c2)N(Cc2c[nH]cn2)CCO3)cc1 [Compound 248] | active or functionally selective agonists of the α2C receptor subtype
12 | CSCCOC(=O)Nc1ccc2c(c1)N(Cc1c[nH]cn1)CCO2 [Compound 249] | active or functionally selective agonists of the α2C receptor subtype
13 | CS(=O)(=O)CCOC(=O)Nc1ccc2c(c1)N(Cc1c[nH]cn1)CCO2 [Compound 250] | active or functionally selective agonists of the α2C receptor subtype
14 | CCN(C(=O)C#CC1CC1)c1ccc2c(c1)N(Cc1c[nH]cn1)CCO2 [Compound 251] | active or functionally selective agonists of the α2C receptor subtype
15 | N#Cc1cc(Cl)c2c(c1)N(Cc1c[nH]cn1)CCO2 [Compound 253] | active or functionally selective agonists of the α2C receptor subtype
16 | CCCCOC(=O)N(C)c1ccc2c(c1)N(Cc1c[nH]cn1)CCO2 [Compound 256] | active or functionally selective agonists of the α2C receptor subtype
17 | CCCOC(=O)N(C)c1ccc2c(c1)N(Cc1c[nH]cn1)CCO2 [Compound 257] | active or functionally selective agonists of the α2C receptor subtype

Row | SMILES | Efficacy agonist activity (Emax, GTPγS assay) for α2C: evaluated as active or functionally selective agonist
18 | CN(C(=O)CCCOc1ccccc1)c1ccc2c(c1)N(Cc1c[nH]cn1)CCO2 [Compound 259] | active or functionally selective agonists of the α2C receptor subtype
19 | COCCOCC(=O)N(C)c1ccc2c(c1)N(Cc1c[nH]cn1)CCO2 [Compound 260] | active or functionally selective agonists of the α2C receptor subtype
20 | CC#CCOC(=O)N(C)c1ccc2c(c1)N(Cc1c[nH]cn1)CCO2 [Compound 262] | active or functionally selective agonists of the α2C receptor subtype
21 | CCCCCCOC(=O)N(C)c1ccc2c(c1)N(Cc1c[nH]cn1)CCO2 [Compound 263] | active or functionally selective agonists of the α2C receptor subtype
22 | CCCOC(=O)N(CC)c1ccc2c(c1)N(Cc1c[nH]cn1)CCO2 [Compound 264] | active or functionally selective agonists of the α2C receptor subtype
23 | CCCCOC(=O)N(CC)c1ccc2c(c1)N(Cc1c[nH]cn1)CCO2 [Compound 265] | active or functionally selective agonists of the α2C receptor subtype
24 | C=CCS(=O)(=O)Nc1ccc2c(c1)N(Cc1c[nH]cn1)CCO2 [Compound 266] | active or functionally selective agonists of the α2C receptor subtype
25 | CCCOC(=O)Nc1ccc2c(c1)N(Cc1c[nH]cn1)CCO2 [Compound 271] | active or functionally selective agonists of the α2C receptor subtype
26 | CCCCOC(=O)Nc1ccc2c(c1)N(Cc1c[nH]cn1)CCO2 [Compound 272] | active or functionally selective agonists of the α2C receptor subtype
27 | CCCCCCNC(=O)N(C)c1ccc2c(c1)N(Cc1c[nH]cn1)CCO2 [Compound 273] | active or functionally selective agonists of the α2C receptor subtype
28 | CCN(C(=O)NCc1ccco1)c1ccc2c(c1)N(Cc1c[nH]cn1)CCO2 [Compound 274] | active or functionally selective agonists of the α2C receptor subtype
29 | CCN(C(=O)OCc1cccnc1)c1ccc2c(c1)N(Cc1c[nH]cn1)CCO2 [Compound 275] | active or functionally selective agonists of the α2C receptor subtype
30 | CCN(C(=O)OCc1ccncc1)c1ccc2c(c1)N(Cc1c[nH]cn1)CCO2 [Compound 276] | active or functionally selective agonists of the α2C receptor subtype
31 | CCN(C(=O)OCc1cc(C)on1)c1ccc2c(c1)N(Cc1c[nH]cn1)CCO2 [Compound 278] | active or functionally selective agonists of the α2C receptor subtype
32 | CCN(C(=O)OCc1ccncc1N)c1ccc2c(c1)N(Cc1c[nH]cn1)CCO2 [Compound 279] | active or functionally selective agonists of the α2C receptor subtype
33 | CCN(C(=O)NCc1ccccc1)c1ccc2c(c1)N(Cc1c[nH]cn1)CCO2 [Compound 280] | active or functionally selective agonists of the α2C receptor subtype
34 | CCN(C(=O)OCc1cnc(N)nc1)c1ccc2c(c1)N(Cc1c[nH]cn1)CCO2 [Compound 281] | active or functionally selective agonists of the α2C receptor subtype
